Data from patent US20200253929A1, “TREATMENT OF EPILEPSY” (priority 2017, published 2020).
Entries after “also recorded” stand apart in the source; their conditions may differ.

Tests used:
[1] = test system: zebrafish larvae; test: Zebrafish toxicity evaluation (maximum tolerated concentration); format: in vivo, Danio rerio; settings: up to 18 hours exposure, 100 μg/mL used where no MTC was reached
Procedure: (§1) In case no MTC was reached, 100 μg/mL was used as the test concentration. In line with studies previously reported [Baraban et al. (2005) Neurosci 131, 759-768; Afrikanova et al. (2013) PLoS One 8, e54166], addition of the GABAA-receptor antagonist PTZ to the swimming water of 7 days post-fertilization (dpf) zebrafish larvae strongly elevated larval locomotion (p≤0.001) (FIGS. 2 and 3) as a result of induced seizures (or seizure-like behavior) that were recognized as typical high-speed swimming, whirlpool-like circling, clonus-like seizures, and loss of posture, as previously described in Baraban et al cited above.
Maximum tolerated concentration (MTC) was determined prior to further experiments and used as the highest test concentration. MTC was investigated by exposing 12 larvae of 6 days post-fertilization (dpf) to a range of concentrations in a 100 μL volume during 18 hours. The following parameters were investigated after 2 and 18 hours of exposure: touch response, morphology, posture, edema, signs of necrosis, swim bladder, and heartbeat. […] In case MTC was not reached, 100 μg/mL was used as the highest test concentration.

[2] = test system: PTZ-induced seizures in zebrafish larvae; test: Zebrafish PTZ seizure model, behavioral analysis; format: in vivo, Danio rerio; settings: at MTC, 2 or 18 hours incubation (not specified per compound)
Procedure: To investigate whether the isolated compounds display antiseizure activity, they were tested in the zebrafish PTZ seizure model after both an acute (2 hours) and chronic (18 hours) incubation time at their maximum tolerated concentration (MTC) (Table 1, FIG. 1).
as §1
Experimental procedure was described in Afrikanova et al.(2013) PLoS One 8, e54166 and Orellana-Paucar et al. (2012) Epilepsy Behav 24, 14-22. In brief, a single 7 dpf larva (in case of 2 hours incubation) or 6 dpf larva (in case of 18 hours incubation) was placed in each well of a 96-well plate and treated with either VHC (1% DMSO) or compound (1% DMSO) in a 100 μL volume. Larvae were incubated in dark for 2 or 18 hours at 28° C., whereafter 100 μL of either VHC (embryo medium) or 40 mM PTZ (dissolved in embryo medium, 20 mM working concentration) was added to each well. Next, within 5 min the 96-well plate was placed in an automated tracking device (ZebraBox Viewpoint, France) and larval behavior was video recorded for 30 min. The complete procedure was performed in dark conditions using infrared light. Total locomotor activity was recorded by ZebraLab software (Viewpoint, France) and expressed in actinteg units, which is the sum of pixel changes detected during the defined time interval (5 min). Larval behavior was depicted as mean actinteg units/5 min during the 30 min recording period and over 5 min time intervals. Data are expressed as mean±SD or as mean ±SEM when the means of independent experiments were pooled.

[3] = test system: NMRI mice; test: Mouse 6-Hz (44 mA) psychomotor seizure model; format: in vivo
From the text: Although the zebrafish model has a high degree of genetic, physiological and pharmacological conservation^13, it is more distinct from humans than mammals. Therefore, we were interested to see if the observed antiseizure properties of azaspirofuran A and pseurotin A2 would translate to a rodent model. The mouse 6-Hz (44 mA) psychomotor seizure model was chosen, because it can detect compounds with novel antiseizure mechanisms and with potential against drug-resistant seizures [Barton et al. (2001) Epilepsy Res 47, 217-227; Wilcox et al. (2013) Epilepsia 54 S4, 24-34]. In this model drug-resistant focal impaired awareness seizures [Fisher et al. (2017) Epilepsia 58, 531-542], previously referred to as complex partial or psychomotor seizures [Holcomb and Dean (2011) Psychomotor Seizures, In Encyclopedia of Child Behavior and Development (Goldstein, S., and Naglieri, J. A., Eds.), pp 1191-1192, Springer US, Boston, Mass.], are induced by low frequency, long duration corneal electrical stimulation (6 Hz, 0.2 ms rectangular pulse width, 3 s duration, 44 mA) and are characterized by stun, twitching of the vibrissae, forelimb clonus, and Straub tail. […] Stimulated mice with a seizure duration shorter than 27 seconds were thus considered to be protected. […] Besides, this study provides another example of the translation of results from zebrafish to rodent seizure models.
Experimental procedure was described in Copmans et al. (2018) Neurochem. Int. 112, 124-133. before Buenafe et al. cited above; Orellana-Paucar cited above. In brief, NMRI mice (average weight 28 g, range 23-32 g) were randomly divided into control and treatment groups (n=5-10). 50 μL (injection volume was adjusted to the individual weight) of VHC (PEG200:DMSO:water; 0.25:0.25:0.5) or treatment (an ASD or test compound dissolved in VHC) was i.p. injected in mice and after 30 or 120 (in case of phenytoin, as reported by Barton et al. cited above) min psychomotor seizures were induced by low frequency, long duration corneal electrical stimulation (6 Hz, 0.2 ms rectangular pulse width, 3 s duration, 44 mA) using an ECT Unit 5780 (Ugo Basile, Comerio, Italy). Mice were manually restrained and a drop of ocular anesthetic (0.5% lidocaine) was applied to the corneas before stimulation. Following electrical current stimulation, the mouse was released in a transparent cage for behavioral observation, which was video-recorded. […] In addition, facial and mouth jerking as well as head nodding were observed occasionally. Mice displaying normal exploratory and locomotion behavior within a time period of 26 seconds were considered to be protected against the induced psychomotor seizures. Seizure durations were measured during the experiment by experienced researchers, familiar with the different seizure behaviors. In addition, seizure durations were determined by blinded video analysis to confirm or correct the initial observations. Data are expressed as mean±SD.

[4] = test system: PTZ-induced epileptiform brain activity in zebrafish larvae; test: Zebrafish PTZ seizure model, local field potential recordings (electrophysiology); format: in vivo, Danio rerio; settings: vs VHC+PTZ
From the text: To determine whether azaspirofuran A and pseurotin A2 can ameliorate the PTZ-induced hyperexcitable state of the brain that is characterized by epileptiform discharges, local field potential (LFP) recordings were non-invasively measured from the midbrain (optic tectum) of zebrafish larvae [Zdebik et al. (2013) PLoS One 8, e79765; Britton et al. (2016) In Electroencephalography (EEG): An Introductory Text and Atlas of Normal and Abnormal Findings in Adults, Children, and Infants (St. Louis and Frey, Eds.), Chicago]. To that end larvae were treated with either VHC or test compound (MTC and optimal incubation time were used) followed by a 15 min during exposure to PTZ or VHC prior to the electrophysiology measurements (FIG. 4). […] Thus, both compounds not only ameliorate PTZ-induced seizures but are likely to do so by lowering the PTZ-induced hyperexcitable state of the brain.
Experimental procedure was described before [Zdebik et al. (2013) PLoS One 8, e79765; Sourbron et al. (2017) Front. Pharmac. 8, 191; Copmans et al. (2018) Neurochem. Int. 112, 124-133.]. Non-invasive LFP recordings were measured from the midbrain (optic tectum) of 7 dpf zebrafish larvae pre-incubated with VHC only, PTZ only, compound and VHC, or compound and PTZ. Larvae were incubated for approximately 2 or 18 hours with VHC (1% DMSO) or compound (1% DMSO) in a 100 μL volume. After incubation, 100 μL of VHC (embryo medium) or 40 mM PTZ (dissolved in embryo medium, 20 mM working concentration) was added to the well for 15 min prior to recording. These steps occurred at 28° C., while further manipulation and electrophysiological recordings occurred at room temperature (21° C.). The larva was embedded in 2% low melting point agarose (Invitrogen) and the signal electrode (an electrode inside a soda-glass pipet (1412227, Hilgenberg) pulled with a DMZ Universal Puller (Zeitz, Germany), diameter±20 microns, containing artificial cerebrospinal fluid (ACSF: 124 mM NaCl, 10 mM glucose, 2 mM KCl, 2 mM MgSO4, 2 mM CaCl2, 1.25 mM KH2PO4, and 26 mM NaHCO3, 300-310 mOsmols)) was positioned on the skin covering the optic tectum. A differential extracellular amplifier (DAGAN, USA) amplified the voltage difference between the signal (measured by the signal electrode) and the reference electrode. The differential signal was band pass filtered at 0.3-300 Hz and digitized at 2 kHz via a PCI-6251 interface (National instruments, UK) using WinEDR (John Dempster, University of Strathclyde, UK). A grounding electrode grounded the electrical system. All electrodes were connected with ACSF. Each recording lasted 600 seconds. Manual analysis was completed by quantification of the number, cumulative duration, and mean duration of epileptiform-like events with Clampfit 10.2 software (Molecular Devices Corporation, USA). An electrical discharge was considered epileptiform if it was a poly-spiking event comprising at least 3 spikes with a minimum amplitude of three times the baseline amplitude and a duration of at least 100 milliseconds. Data are expressed as mean±SD for the number and cumulative duration of epileptiform events and as mean±SEM for the mean duration of events.

[5] = MTC and optimal incubation time, 10 min recording

## 11-O-methylpseurotin A
[1]
  MTC (maximum tolerated concentration): 100 µg/mL
[2]
  PTZ-induced seizures (seizure-like behavior): less pronounce reduction in PTZ-induced seizures
[2]; listed as 11-Omethylpseurotin A
  PTZ-induced seizures (seizure-like behavior): not active

## CC/C=C\C(OC(=O)c1ccccc1N)C(O)C1=C(C)C(=O)C2(O1)C(=O)NC(OC)(C(=O)c1ccccc1)C2O (centres unmarked) [11-anthranilyl-Pseurotin A]
[1]
  MTC (maximum tolerated concentration): 100 µg/mL
[2]
  PTZ-induced seizures (seizure-like behavior): less pronounce reduction in PTZ-induced seizures

## CCc1ccc(C2=C(C)C(=O)[C@]3(O2)C(=O)N[C@@](O)(C(=O)c2ccccc2)[C@@H]3O)o1 [azaspirofuran B]
[1]
  MTC (maximum tolerated concentration): 12.5 µg/mL

## O=C1NC(=O)C(c2ccccc2)(c2ccccc2)N1 [phenytoin, reference compound]
[3]; 10 mg/kg i.p., 120 min before electrical stimulation
  response of seizures: limited non-significant response

## CC/C=C\[C@H](O)[C@H](O)C1=C(C)C(=O)[C@]2(O1)C(=O)N[C@@](OC)(C(=O)c1ccccc1)[C@@H]2O [pseurotin A]
[1]
  MTC (maximum tolerated concentration): 100 µg/mL
[2]
  PTZ-induced seizures (seizure-like behavior): not active
[4]; 100 μg/mL, 18 hours
  mean duration of epileptiform events: significantly lower the mean duration
[4]; [5]
  cumulative duration of epileptiform events: non-significantly lower
  number of epileptiform events: non-significantly lower

## CCC(O)C=C[C@H](O)C1=C(C)C(=O)[C@]2(O1)C(=O)N[C@@](OC)(C(=O)c1ccccc1)[C@@H]2O (some centres unmarked) [pseurotin D]
[1]
  MTC (maximum tolerated concentration): 100 µg/mL
[2]
  PTZ-induced seizures (seizure-like behavior): less pronounce reduction in PTZ-induced seizures; also recorded: not active

## CC/C=C\[C@H](O)[C@H](O)C1=C(C)C(=O)[C@]2(O1)C(=O)N[C@](O)(C(=O)c1ccccc1)[C@@H]2O [pseurotin F1]
[1]
  MTC (maximum tolerated concentration): 50 µg/mL
[2]
  PTZ-induced seizures (seizure-like behavior): less pronounce reduction in PTZ-induced seizures

## CCCC(CCC)C(=O)O [valproate, reference compound]
[3]; 300 mg/kg i.p., 30 min before electrical stimulation
  mean seizure duration: 4 s
